According to patent US9108903B2, “Amides as modulators of sodium channels” (VERTEX PHARMACEUTICALS INCORPORATED, priority 2013, dated 2015):

biological target: human Nav1.8 (Homo sapiens (Human), UniProt Q9Y5Y9); assay: E-VIPR optical membrane potential assay with electrical stimulation; format: cell-based; settings: HEK cells expressing human Nav1.8
Excerpt: Assays for Detecting and Measuring NaV Inhibition Properties of Compounds E-VIPR Optical Membrane Potential Assay Method with Electrical Stimulation
Sodium channels are voltage-dependent proteins that can be activated by inducing membrane voltage changes by applying electric fields. The electrical stimulation instrument and methods of use are described in Ion Channel Assay Methods PCT/US01/21652, herein incorporated by reference and are referred to as E-VIPR. The instrument comprises a microtiter plate handler, an optical system for exciting the coumarin dye while simultaneously recording the coumarin and oxonol emissions, a waveform generator, a current- or voltage-controlled amplifier, and a device for inserting electrodes in well. Under integrated computer control, this instrument passes user-programmed electrical stimulus protocols to cells within the wells of the microtiter plate.
24 hours before the assay on E-VIPR, HEK cells expressing human Nav1.8 were seeded in 384-well poly-lysine coated plates at 15,000-20,000 cells per well. HEK cells were grown in media (exact composition is specific to each cell type and NaV subtype) supplemented with 10% FBS (Fetal Bovine Serum, qualified; GibcoBRL #16140-071) and 1% Pen-Strep (Penicillin-Streptomycin; GibcoBRL #15140-122). Cells were grown in vented cap flasks, in 90% humidity and 5% CO2.
100 mg/mL Pluronic F-127 (Sigma #P2443), in dry DMSO
Compound Plates: 384-well round bottom plate, e.g. Corning 384-well Polypropylene Round Bottom #3656
Cell Plates: 384-well tissue culture treated plate, e.g. Greiner #781091-1B
Bath1 buffer: Glucose 10 mM (1.8 g/L), Magnesium Chloride (Anhydrous), 1 mM (0.095 g/L), Calcium Chloride, 2 mM (0.222 g/L), HEPES 10 mM (2.38 g/L), Potassium Chloride, 4.5 mM (0.335 g/L), Sodium Chloride 160 mM (9.35 g/L).
Hexyl Dye Solution: Bath1 Buffer+0.5% β-cyclodextrin (make this prior to use, Sigma #C4767), 8 μM CC2-DMPE+2.5 μM DiSBAC6(3). To make the solution added volume of 10% Pluronic F127 stock equal to volumes of CC2-DMPE+DiSBAC6(3). The order of preparation was first mix Pluronic and CC2-DMPE, then added DiSBAC6(3) while vortexing, then added Bath1+β-Cyclodextrin.
1) Pre-spotted compounds (in neat DMSO) into compound plates. Vehicle control (neat DMSO), the positive control (20 mM DMSO stock tetracaine, 125 μM final in assay) and test compounds were added to each well at 160× desired final concentration in neat DMSO. Final compound plate volume was 80 μL (80-fold intermediate dilution from 1 μL DMSO spot; 160-fold final dilution after transfer to cell plate). Final DMSO concentration for all wells in assay was 0.625%.
2) Prepared Hexyl Dye Solution.
3) Prepared cell plates. On the day of the assay, medium was aspirated and cells were washed three times with 100 μL of Bath1 Solution, maintaining 25 μL residual volume in each well.
4) Dispensed 25 μL per well of Hexyl Dye Solution into cell plates. Incubated for 20-35 minutes at room temp or ambient conditions.
5) Dispensed 80 μL per well of Bath1 into compound plates. Acid Yellow-17 (1 mM) was added and Potassium Chloride was altered from 4.5 to 20 mM depending on the NaV subtype and assay sensitivity.
6) Washed cell plates three times with 100 μL per well of Bath1, leaving 25 μL of residual volume. Then transfered 25 uL per well from Compound Plates to Cell Plates. Incubated for 20-35 minutes at room temp/ambient condition.
7) Read Plate on E-VIPR. Used the current-controlled amplifier to deliver stimulation wave pulses for 10 seconds and a scan rate of 200 Hz. A pre-stimulus recording was performed for 0.5 seconds to obtain the un-stimulated intensities baseline. The stimulatory waveform was followed by 0.5 seconds of post-stimulation recording to examine the relaxation to the resting state.
Data was analyzed and reported as normalized ratios of emission intensities measured in the 460 nm and 580 nm channels. The response as a function of time was reported as the ratios obtained using the following formula: […]

Sequence of human Nav1.8 (Q9Y5Y9 whole entry): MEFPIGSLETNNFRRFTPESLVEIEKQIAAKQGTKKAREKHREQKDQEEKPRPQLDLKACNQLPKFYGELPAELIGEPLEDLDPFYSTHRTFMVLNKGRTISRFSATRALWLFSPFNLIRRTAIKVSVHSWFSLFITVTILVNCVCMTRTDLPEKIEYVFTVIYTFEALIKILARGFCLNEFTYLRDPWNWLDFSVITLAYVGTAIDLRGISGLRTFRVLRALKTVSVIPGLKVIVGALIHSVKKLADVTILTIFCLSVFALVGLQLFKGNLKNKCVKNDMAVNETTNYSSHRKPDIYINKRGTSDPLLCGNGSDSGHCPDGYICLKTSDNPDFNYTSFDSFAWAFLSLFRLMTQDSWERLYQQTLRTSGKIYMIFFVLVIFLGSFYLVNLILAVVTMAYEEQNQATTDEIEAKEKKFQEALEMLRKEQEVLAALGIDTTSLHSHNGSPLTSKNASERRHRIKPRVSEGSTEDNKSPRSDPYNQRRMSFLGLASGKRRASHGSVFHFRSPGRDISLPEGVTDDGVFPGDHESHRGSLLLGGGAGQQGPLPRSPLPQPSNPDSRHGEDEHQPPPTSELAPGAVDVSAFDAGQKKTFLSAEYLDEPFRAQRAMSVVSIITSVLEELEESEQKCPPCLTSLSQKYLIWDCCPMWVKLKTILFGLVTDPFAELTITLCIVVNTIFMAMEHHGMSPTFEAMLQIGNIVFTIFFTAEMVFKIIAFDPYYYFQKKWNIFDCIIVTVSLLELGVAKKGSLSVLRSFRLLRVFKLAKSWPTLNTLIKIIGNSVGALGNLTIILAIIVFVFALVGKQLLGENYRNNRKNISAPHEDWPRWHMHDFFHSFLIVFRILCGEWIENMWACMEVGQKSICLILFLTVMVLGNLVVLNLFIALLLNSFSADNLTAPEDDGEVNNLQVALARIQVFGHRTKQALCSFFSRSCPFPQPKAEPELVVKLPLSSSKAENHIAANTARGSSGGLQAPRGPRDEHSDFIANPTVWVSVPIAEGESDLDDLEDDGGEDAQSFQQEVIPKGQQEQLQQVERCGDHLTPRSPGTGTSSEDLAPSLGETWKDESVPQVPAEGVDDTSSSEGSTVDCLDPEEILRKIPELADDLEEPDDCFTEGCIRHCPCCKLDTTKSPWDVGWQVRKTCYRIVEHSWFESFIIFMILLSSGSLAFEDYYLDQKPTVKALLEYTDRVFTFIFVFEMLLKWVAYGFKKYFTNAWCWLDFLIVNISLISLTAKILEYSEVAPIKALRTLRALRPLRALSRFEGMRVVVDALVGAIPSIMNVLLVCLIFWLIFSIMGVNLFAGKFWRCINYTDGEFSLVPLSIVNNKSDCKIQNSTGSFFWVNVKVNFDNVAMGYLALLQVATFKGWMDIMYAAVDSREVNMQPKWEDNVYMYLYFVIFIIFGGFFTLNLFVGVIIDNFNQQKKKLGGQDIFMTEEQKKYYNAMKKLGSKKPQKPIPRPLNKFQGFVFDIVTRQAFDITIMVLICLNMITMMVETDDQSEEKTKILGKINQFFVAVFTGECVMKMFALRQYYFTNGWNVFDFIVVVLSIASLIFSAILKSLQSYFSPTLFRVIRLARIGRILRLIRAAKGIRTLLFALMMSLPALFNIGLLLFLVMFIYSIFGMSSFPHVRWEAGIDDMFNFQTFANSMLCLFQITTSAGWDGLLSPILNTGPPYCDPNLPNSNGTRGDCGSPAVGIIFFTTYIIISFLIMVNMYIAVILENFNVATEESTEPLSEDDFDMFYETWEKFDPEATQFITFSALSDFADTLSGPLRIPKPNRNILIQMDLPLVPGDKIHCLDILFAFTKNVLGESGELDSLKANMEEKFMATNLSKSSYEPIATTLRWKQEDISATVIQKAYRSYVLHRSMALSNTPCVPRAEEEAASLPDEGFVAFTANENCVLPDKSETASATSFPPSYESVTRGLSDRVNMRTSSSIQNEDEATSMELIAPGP

Compound | IC50
4-(4,5-dichloro-2-(4-fluoro-2-methoxyphenoxy)benzamido)picolinic acid [Compound 76] | 12 nM
O=C(O)c1ccc(NC(=O)c2ccc(C(F)(F)C(F)(F)F)cc2Oc2ccc(F)cc2Cl)cc1 [Compound 1, 4-(2-(2-chloro-4-fluorophenoxy)-4-(perfluoroethyl)benzamido)benzoic acid] | 17 nM
O=C(O)c1ccc(NC(=O)c2ccc(C(F)(F)C(F)(F)F)cc2Oc2ccc(F)cc2F)cc1 [Compound 2, 4-(2-(2,4-difluorophenoxy)-4-(perfluoroethyl)benzamido)benzoic acid] | 32 nM
Cc1cc(F)ccc1Oc1cc(C(F)(F)C(F)(F)F)ccc1C(=O)Nc1ccc(C(=O)O)cc1 [Compound 3, 4-(2-(4-fluoro-2-methylphenoxy)-4-(perfluoroethyl)benzamido)benzoic acid] | 22 nM
O=C(O)c1ccc(NC(=O)c2ccc(C(F)(F)F)cc2Oc2ccc(F)cc2Cl)cc1 [Compound 4, 4-(2-(2-chloro-4-fluorophenoxy)-4-(trifluoromethyl)benzamido)benzoic acid] | 58 nM
Cc1cc(F)ccc1Oc1cc(C(F)(F)F)ccc1C(=O)Nc1ccc(C(=O)O)cc1 [Compound 5, 4-(2-(4-fluoro-2-methylphenoxy)-4-(trifluoromethyl)benzamido)benzoic acid] | 60 nM
O=C(O)c1ccc(NC(=O)c2ccc(C(F)(F)F)cc2Oc2ccc(F)cc2F)cc1 [Compound 6, 4-(2-(2,4-difluorophenoxy)-4-(trifluoromethyl)benzamido)benzoic acid] | 145 nM
O=C(O)c1ccc(NC(=O)c2ccc(C(F)(F)F)cc2Oc2ccc(OC(F)(F)F)cc2)cc1 [Compound 7, 4-(2-(4-(trifluoromethoxy)phenoxy)-4-(trifluoromethyl)benzamido)benzoic acid] | 37 nM
O=C(O)c1ccc(NC(=O)c2c(Oc3ccc(F)cc3F)cc(C(F)(F)F)cc2C(F)(F)F)cc1 [Compound 8, 4-(2-(2,4-difluorophenoxy)-4,6-bis(trifluoromethyl)benzamido)benzoic acid] | 405 nM
Cc1cc(F)ccc1Oc1cc(C(F)(F)F)cc(C(F)(F)F)c1C(=O)Nc1ccc(C(=O)O)cc1 [Compound 9, 4-(2-(4-fluoro-2-methylphenoxy)-4,6-bis(trifluoromethyl)benzamido)benzoic acid] | 130 nM
COc1cc(F)ccc1Oc1cc(C(F)(F)F)cc(C(F)(F)F)c1C(=O)Nc1ccc(C(=O)O)cc1 [Compound 10, 4-(2-(4-fluoro-2-methoxyphenoxy)-4,6-bis(trifluoromethyl)benzamido)benzoic acid] | 37 nM
O=C(O)c1ccc(NC(=O)c2c(Oc3ccc(F)cc3)cc(C(F)(F)F)cc2C(F)(F)F)cc1 [Compound 11, 4-(2-(4-fluorophenoxy)-4,6-bis(trifluoromethyl)benzamido)benzoic acid] | 305 nM
COc1cc(F)ccc1Oc1cc(Cl)c(Cl)cc1C(=O)Nc1ccc(C(=O)O)cc1 [Compound 12, 4-(4,5-dichloro-2-(4-fluoro-2-methoxyphenoxy)benzamido)benzoic acid] | 11 nM
O=C(O)c1ccc(NC(=O)c2cc(Cl)c(Cl)cc2Oc2ccc(F)cc2)cc1 [Compound 13, 4-(4,5-dichloro-2-(4-fluorophenoxy)benzamido)benzoic acid] | 58 nM
Cc1cc(F)ccc1Oc1cc(Cl)c(Cl)cc1C(=O)Nc1ccc(C(=O)O)cc1 [Compound 14, 4-(4,5-dichloro-2-(4-fluoro-2-methylphenoxy)benzamido)benzoic acid] | 15 nM
O=C(O)c1ccc(NC(=O)c2cc(Cl)c(Cl)cc2Oc2ccccc2)cc1 [Compound 15, 4-(4,5-dichloro-2-phenoxybenzamido)benzoic acid] | 290 nM

Compound | IC50
COc1ccc(Oc2cc(Cl)c(Cl)cc2C(=O)Nc2ccc(C(=O)O)cc2)c(F)c1 [Compound 16, 4-(4,5-dichloro-2-(2-fluoro-4-methoxyphenoxy)benzamido)benzoic acid] | 115 nM
O=C(O)c1ccc(NC(=O)c2cc(Cl)c(Cl)cc2Oc2ccc(OCC(F)(F)F)cc2)cc1 [Compound 17, 4-(4,5-dichloro-2-(4-(2,2,2-trifluoroethoxy)phenoxy)benzamido)benzoic acid] | 62 nM
COc1cc(Cl)ccc1Oc1cc(Cl)c(Cl)cc1C(=O)Nc1ccc(C(=O)O)cc1 [Compound 18, 4-(4,5-dichloro-2-(4-chloro-2-methoxyphenoxy)benzamido)benzoic acid] | 11 nM
O=C(O)c1ccc(NC(=O)c2cc(Cl)c(Cl)cc2Oc2ccccc2OC(F)F)cc1 [Compound 19, 4-(4,5-dichloro-2-(2-(difluoromethoxy)phenoxy)benzamido)benzoic acid] | 66 nM
Cc1cc(Cl)ccc1Oc1cc(Cl)c(Cl)cc1C(=O)Nc1ccc(C(=O)O)cc1 [Compound 20, 4-(4,5-dichloro-2-(4-chloro-2-methylphenoxy)benzamido)benzoic acid] | 24 nM
COc1ccc(Oc2cc(Cl)c(Cl)cc2C(=O)Nc2ccc(C(=O)O)cc2)c(OC)c1 [Compound 21, 4-(4,5-dichloro-2-(2,4-dimethoxyphenoxy)benzamido)benzoic acid] | 27 nM
COc1ccc(Oc2cc(Cl)c(Cl)cc2C(=O)Nc2ccc(C(=O)O)cc2)cc1F [Compound 22, 4-(4,5-dichloro-2-(3-fluoro-4-methoxyphenoxy)benzamido)benzoic acid] | 78 nM
O=C(O)c1ccc(NC(=O)c2cc(Cl)c(Cl)cc2Oc2ccc(F)cc2Cl)cc1 [Compound 23, 4-(4,5-dichloro-2-(2-chloro-4-fluorophenoxy)benzamido)benzoic acid] | 33 nM
O=C(O)c1ccc(NC(=O)c2cc(Cl)c(Cl)cc2Oc2ccc(F)cc2F)cc1 [Compound 24, 4-(4,5-dichloro-2-(2,4-difluorophenoxy)benzamido)benzoic acid] | 53 nM
COc1ccc(Oc2cc(Cl)c(Cl)cc2C(=O)Nc2ccc(C(=O)O)cc2)c(Cl)c1 [Compound 25, 4-(4,5-dichloro-2-(2-chloro-4-methoxyphenoxy)benzamido)benzoic acid] | 92 nM
O=C(O)c1ccc(NC(=O)c2cc(Cl)c(Cl)cc2Oc2ccc(OC(F)(F)F)cc2)cc1 [Compound 26, 4-(4,5-dichloro-2-(4-(trifluoromethoxy)phenoxy)benzamido)benzoic acid] | 24 nM
COc1cc(F)ccc1Oc1cc(C(F)(F)C(F)(F)F)ccc1C(=O)Nc1ccc(C(=O)O)cc1 [Compound 27, 4-(2-(4-fluoro-2-methoxyphenoxy)-4-(perfluoroethyl)benzamido)benzoic acid] | 20 nM
Cc1cc(F)ccc1Oc1ccc(C(F)(F)F)cc1C(=O)Nc1ccc(C(=O)O)cc1 [Compound 29, 4-(2-(4-fluoro-2-methylphenoxy)-5-(trifluoromethyl)benzamido)benzoic acid] | 245 nM
O=C(O)c1ccc(NC(=O)c2cc(Cl)c(Cl)cc2Oc2ccc(F)cc2)cn1 [Compound 30, 5-(4,5-dichloro-2-(4-fluorophenoxy)benzamido)picolinic acid] | 34 nM
Cc1cc(F)ccc1Oc1cc(Cl)c(Cl)cc1C(=O)Nc1ccc(C(=O)O)nc1 [Compound 32, 5-(4,5-dichloro-2-(4-fluoro-2-methylphenoxy)benzamido)picolinic acid] | 11 nM
O=C(O)c1ccc(NC(=O)c2cc(Cl)c(Cl)cc2Oc2ccccc2)cn1 [Compound 33, 5-(4,5-dichloro-2-phenoxybenzamido)picolinic acid] | 190 nM
